{"source": "patent US20230331727A1", "about": "“METHOD FOR THE PRODUCTION OF LUMATEPERONE AND ITS SALTS” (EGIS GYOGYSZERGYAR ZRT., priority 2017, published 2023)", "key": {"[1]": {"experiment": "DSC measurement of the amorphous tosylate", "type": "physicochemical", "conditions": "30° C. - 190° C., 10° C./min, open Al crucible", "procedure": "According to DSC measurements the amorphous form formed with p-toluenesulfonic acid according to the invention only transforms into the crystalline form A at a temperature of around 120° C. This supports that the amorphous form is suitable for the production of pharmaceutical preparations. In other words the advantage of the invention is that the amorphous salt according to the invention is morphologically uniform and stable. Therefore, it is not expected to transform into another form in the pharmaceutical preparation, and the quality of the preparations, primarily its dissolution characteristics are not expected to change. The morphological uniformity is supported by the x-ray powder diffractogram of the novel salt, it confirms its uniform crystal structure and enables the identification of the form even in a pharmaceutical preparation, thereby making it possible to monitor the quality at a later time, and differentiate it from other crystalline polymorphous forms. [table]"}, "[2]": {"experiment": "Storage stability of the amorphous salt by x-ray powder diffraction", "type": "physicochemical", "conditions": "storage at room temperature in a sealed vessel; XRD curves after production and after storage essentially the same (FIG. 5)", "from_the_text": "The reason for this is that the general experience with amorphous active substances is that they are less chemically stable, also while amorphous substances are left to stand, optionally, during storage, or in the pharmaceutical preparation itself they partially or completely transform into a crystalline form or into a mixture of several crystalline forms forming a morphologically inhomogeneous (non-uniform) active substance. Furthermore the solubility of the unstable amorphous compound usually differs from the solubility of the crystalline active substance, a morphological change during storage may lead to a change in the effect of the preparation. However, contrary to the general expectations it was surprising to experience that the formula (III) amorphous lumateperone salt according to the invention, in which salt the molar ratio of the formula (I) lumateperone and p-toluenesulfonic acid is 1:1, remains stable for 3 months (see FIG. 5) without transforming into the very stable polymorph form A or other form. […] It can be seen that the two curves are essentially the same, no peaks characteristic of crystalline forms are apparent even after storage. […] [table] [table]"}}, "data": [{"smiles": "CN1CCN2c3c(cccc31)[C@@H]1CN(CCCC(=O)c3ccc(F)cc3)CC[C@@H]12.Cc1ccc(S(=O)(=O)O)cc1", "values": [{"measurement": "temperature at which the amorphous form transforms into the crystalline form A", "setting": "[1]", "value": "around 120 °C"}, {"measurement": "remains stable without transforming into the very stable polymorph form A or other form", "setting": "[2]", "value": 3, "unit": "months"}]}]}
